Measured values taken from ChEMBL document CHEMBL4177563, “The medicinal chemistry of Chikungunya virus” (Bioorg Med Chem, 2017).

Assays:
[1] = tested on: Chikungunya virus; assay: Antiviral activity against Chikungunya virus LR2006 OPY1 infected in human MRC5 cells after 48 hrs by indirect immunofluorescence analysis; format: functional, organism-based; conditions: LR2006 OPY1, MRC5, 48 h
[2] = tested on: Dengue virus; assay: Antiviral activity against Dengue virus infected in human K562 cells assessed as reduction in viral load at 1 uM; format: functional
[3] = tested on: Chikungunya virus; assay: Antiviral activity against Chikungunya virus infected in human Huh-7 cells assessed as reduction in viral load at 10 uM; format: functional
[4] = tested on: Dengue virus; assay: Antiviral activity against Dengue virus infected in human Huh-7 cells assessed as reduction in viral load at 1 uM; format: functional
[5] = Cytotoxicity against African green monkey Vero cells assessed as reduction in cell viability after 4 days by MTT assay; format: cell-based; conditions: chlorocebus sabaeus
[6] = tested on: Chikungunya virus; assay: Antiviral activity against Chikungunya virus KC969207 infected in African green monkey Vero cells after 48 hrs by MTT dye-based assay; format: functional, organism-based
[7] = Selectivity index, ratio of CC50 for African green monkey Vero cells to IC50 for Chikungunya virus KC969208; format: toxicity; conditions: read-out: Ratio CC50/IC50
[8] = tested on: Chikungunya virus; assay: Antiviral activity against Chikungunya virus KC969208 infected in African green monkey Vero cells after 48 hrs by MTT dye-based assay; format: functional, organism-based
[9] = Selectivity index, ratio of CC50 for African green monkey Vero cells to IC50 for Chikungunya virus KC969207; format: toxicity; conditions: read-out: Ratio CC50/IC50
[10] = Selectivity index, ratio of CC50 for African green monkey Vero cells to IC50 for Chikungunya virus nsP2 protease; format: toxicity; conditions: read-out: Ratio CC50/IC50
[11] = Cytotoxicity against human Huh7.5 cells in presence of ATP by Celltiter-Glo assay; format: cell-based
[12] = tested on: Chikungunya virus; assay: Antiviral activity against Chikungunya virus LR2006-OPY1 infected in BHK21 cells after 48 hrs by luciferase reporter gene assay; format: functional, organism-based; conditions: LR2006-OPY1, BHK-21, 48 h
[13] = tested on: Chikungunya virus; assay: Antiviral activity against Chikungunya virus LR2006-OPY1 infected in human Huh7.5 cells after 48 hrs by luciferase reporter gene assay; format: functional, organism-based; conditions: LR2006-OPY1, Huh7.5, 48 h
[14] = Cytotoxicity against BHK21 cells in presence of ATP by Celltiter-Glo assay; format: cell-based, Mesocricetus auratus; conditions: hamster, BHK-21 cells
[15] = Selectivity index, ratio of CC50 for human Huh7.5 cells to EC50 for Chikungunya virus; format: toxicity; conditions: read-out: Ratio CC50/EC50
[16] = Selectivity index, ratio of CC50 for BHK21 cells to EC50 for Chikungunya virus; format: toxicity; conditions: hamster, BHK-21 cells; read-out: Ratio CC50/EC50
[17] = tested on: Chikungunya virus; assay: Antiviral activity against Chikungunya virus 899 infected in African green monkey Vero-A cells assessed as inhibition of viral-induced cytopathic effect measured on day 7 post infection by MTS/PMS assay; format: functional, organism-based; conditions: Chikungunya virus, 899, 168 h
[18] = tested on: Chikungunya virus; assay: Antiviral activity against Chikungunya virus infected in African green monkey Vero cells; format: functional, organism-based
[19] = Selectivity index, ratio of CC50 for African green monkey Vero cells to EC50 for Chikungunya virus; format: toxicity; conditions: read-out: Ratio CC50/EC50
[20] = tested on: Chikungunya virus; assay: Antiviral activity against Chikungunya virus 899 infected in African green monkey Vero cells assessed as inhibition of virus-induced cytopathogenic effect measured on day 5 post infection by MTS/PMS based microscopic analysis; format: functional, organism-based; conditions: Chikungunya virus, 899, Vero, 120 h
[21] = tested on: Vero; assay: Cytotoxicity against African green monkey Vero cells assessed as reduction in cell viability measured on day 5 post dose by MTS/PMS based microscopic analysis; conditions: chlorocebus sabaeus
[22] = tested on: Chikungunya virus; assay: Antiviral activity against Chikungunya virus 899 infected in African green monkey Vero A cells assessed as reduction in viral infectious progeny by end-point titration assay; format: functional, organism-based; conditions: Chikungunya virus, 899, Vero
[23] = tested on: Chikungunya virus; assay: Antiviral activity against Chikungunya virus 899 infected in African green monkey Vero A cells by real-time qRT-PCR analysis; format: functional, organism-based; conditions: Chikungunya virus, 899, Vero
[24] = Cytotoxicity against African green monkey Vero A cells assessed as reduction in cell viability measured on day 5 post infection by MTS/PMS based microscopic analysis; conditions: chlorocebus sabaeus
[25] = tested on: Chikungunya virus; assay: Antiviral activity against Chikungunya virus 899 infected in African green monkey Vero A cells assessed as inhibition of virus-induced cytopathogenic effect measured on day 5 post infection by MTS/PMS based microscopic analysis; format: functional, organism-based; conditions: Chikungunya virus, 899, Vero, 120 h

SMILES: CCOC(=O)c1c(CS(=O)(=O)c2ccccc2)n(C)c2cc(Br)c(O)c(CN(C)C)c12
- IC50 [1]: > 56.4 µM

SMILES: O=C1c2c(O)ccc([N+](=O)[O-])c2C(=O)c2c([N+](=O)[O-])ccc(O)c21
- Activity [2]: >1 log10PFU/ml
- Activity [3]: 1 log10PFU/ml
- Activity [4]: >1 log10PFU/ml

SMILES: CCCCOC(=O)c1ccccc1C(=O)O
- CC50 at 96 h [5]: 340 µM
- IC50 [6]: 2.49 µM
- selectivity ratio [7]: 11.9
- IC50 [8]: 28.6 µM
- selectivity ratio [9]: 136

SMILES: CCOC(=O)c1c(C[S+]([O-])c2ccccc2)n(C)c2cc(Br)c(O)c(CN(C)C)c12 (centres undefined)
- IC50 [1]: 54.5 µM

SMILES: CCOc1ccc(/C=N/NC(=O)C2CC2c2ccc(C(C)(C)C)cc2)cc1OCC (centres undefined)
- selectivity ratio [10]: 14

SMILES: CC[C@H](C)[C@H]1O[C@]2(CC[C@@H]1C)C[C@@H]1C[C@@H](C/C=C(\C)[C@@H](O[C@H]3C[C@H](OC)[C@@H](O[C@H]4C[C@H](OC)[C@@H](O)[C@H](C)O4)[C@H](C)O3)[C@@H](C)/C=C/C=C3\CO[C@]4(O)[C@H](O)C(C)=C[C@@H](C(=O)O1)[C@]34O)O2
- CC50 [11]: 8 µM
- EC50 [12]: 0.6 µM
- EC50 [13]: 1.9 µM
- CC50 [14]: 37.9 µM
- selectivity ratio [15]: 4.1
- selectivity ratio [16]: 62.4

SMILES: NC(=O)c1nccnc1O
- EC50 [17]: 7 µM

SMILES: C/C(=C\C(=O)O[C@@H]1[C@H](C)C[C@H]2O[C@]1(O)[C@@H](O)[C@H]1CC[C@H](O1)C(C)(C)/C=C/[C@H](C)C2=O)C(C)O (some centres undefined)
- EC50 [18]: 34 µM
- selectivity ratio [19]: 3.2

SMILES: CN(C)CC1CCn2c(cc3ccc(C4=C(c5cn(C)c6ccccc56)C(=O)NC4=O)cc32)C1 (centres undefined)
- EC50 [20]: > 6 µM
- CC50 [21]: 35 µM

SMILES: CC(C)CCCC(C)CCCC(C)CCCC(C)CCO (centres undefined)
- CC50 at 96 h [5]: 259 µM
- IC50 [6]: 1.66 µM
- selectivity ratio [7]: 2.11
- IC50 [8]: 112 µM
- selectivity ratio [9]: 156

SMILES: CC(=O)C(C)/C(C)=C/C(=O)O[C@@H]1[C@H](C)C[C@H]2O[C@]1(O)[C@@H](O)[C@H]1CC[C@H](O1)C(C)(C)/C=C/[C@H](C)C2=O (some centres undefined)
- EC50 [18]: 7 µM
- selectivity ratio [19]: 8.8

SMILES: CCOc1ccc(/C=N/NC(=O)/C=C/Cc2ccc(C(C)(C)C)cc2)cc1OCC
- selectivity ratio [10]: 32

SMILES: CCCCCCCC(=O)O[C@H]1/C(=C/C(=O)OC)C[C@H]2C[C@H](CC(=O)OC)OC(=O)CCOc3ccccc3C(=O)OCC(C)(C)[C@]1(O)O2
- EC50 [22]: 4.5 µM
- EC50 [23]: 4.6 µM
- CC50 at 5 days [24]: > 50 µM
- EC50 [25]: 8 µM
